In patent publication US10954214B2 (Janssen Pharmaceutica NV, priority 2016, dated 2021):

Legend:
[1] = system: IL10 secretion by TMD8 ABC-DLBCL cells; assay: Human IL10 Mesoscale assay (TMD-8); type: cell-based; settings: Homo sapiens, TMD8; TMD-8 cells, 24 h
Experimental: (§1) NFKB signaling regulates the secretion of multiple cytokines, including IL6 and IL10. Secretion of the cytokines IL6 and IL10 by TMD8 or OCI-LY3 ABC-DLBCL cells was measured using a mesoscale assay. Inhibition of NFKB signaling by MALT1 or BTK inhibitors results in a decrease of IL6/10 secretion.
(§2) TMD8 or OCI-LY3 cells were propagated in RPMI-1640 (Sigma Aldrich) supplemented with 10% fetal bovine serum (HyClone), 1 mM sodium pyruvate (Invitrogen), 2 mM L-glutamine (Sigma Aldrich) and 1% PenStrep (Sigma Aldrich). Cell passage number should not exceed 30. Cells should be kept between 0.5-2.5 million cells per mL during culturing and cells should be supplemented every 2-3 days with fresh 50 μM beta-mercaptoenthanol. No beta-mercaptoethanol was used during the mesoscale assay.
(§3) For the Mesoscale assay, 100,000 TMD8 or OCI-LY3 cells were seeded per well into black-colored 96-well plates with clear bottom (Corning #3904) and test compounds were added in 9 dilution steps (1:2) ranging from 15 μM to 58.6 nM (final DMSO concentration 0.3%). DMSO control wells were used to determine the maximum signal (High Control (HC)). Treatment with the BTK inhibitor RN486 in a dose range from 30 nM to 131 pM (9 dilutions of 1:2) served as a positive control for NFKB pathway inhibition and was used to determine the maximum inhibition (Low Control (LC)). Compounds and cells were incubated for 24 h at 37° C. and 5% CO2 (assay volume is 150 μL). After 24 h of incubation 50 μL of the supernatant was transferred to a MSD plate (V-Plex Proinflammation Panel 1 (human) kit, Mesoscale (MSD)) and incubated for 2 h with vigorous shaking (600 rpm) at room temperature. Following incubation, plates were washed 3× with PBS+0.05% Tween-20 and 25 μL detection antibody solution (IL6 & IL10 antibodies in diluent 3 (MSD)) was added per well followed by 2 h of incubation with vigorous shaking (600 rpm) at room temperature. After 3× washes with PBS+0.05% Tween-20, plates were incubated with 150 μL 2× Read Buffer T and read on SECTOR imager.

[2] = target: full-length MALT1 protein (Strep-MALT1(1-824)-His) (Homo sapiens (Human), UniProt Q9UDY8); assay: MALT1 Biochemical Protease Assay (Ac-LRSR-AMC substrate); settings: 10 nM FL MALT1, 200 μM Ac-LRSR-AMC, 4 h at RT; read-out: MALT1_Biochemical activity (Ac-LRSR-amc) IC50
Sequence of full-length MALT1 protein (Strep-MALT1(1-824)-His) (Q9UDY8 whole entry): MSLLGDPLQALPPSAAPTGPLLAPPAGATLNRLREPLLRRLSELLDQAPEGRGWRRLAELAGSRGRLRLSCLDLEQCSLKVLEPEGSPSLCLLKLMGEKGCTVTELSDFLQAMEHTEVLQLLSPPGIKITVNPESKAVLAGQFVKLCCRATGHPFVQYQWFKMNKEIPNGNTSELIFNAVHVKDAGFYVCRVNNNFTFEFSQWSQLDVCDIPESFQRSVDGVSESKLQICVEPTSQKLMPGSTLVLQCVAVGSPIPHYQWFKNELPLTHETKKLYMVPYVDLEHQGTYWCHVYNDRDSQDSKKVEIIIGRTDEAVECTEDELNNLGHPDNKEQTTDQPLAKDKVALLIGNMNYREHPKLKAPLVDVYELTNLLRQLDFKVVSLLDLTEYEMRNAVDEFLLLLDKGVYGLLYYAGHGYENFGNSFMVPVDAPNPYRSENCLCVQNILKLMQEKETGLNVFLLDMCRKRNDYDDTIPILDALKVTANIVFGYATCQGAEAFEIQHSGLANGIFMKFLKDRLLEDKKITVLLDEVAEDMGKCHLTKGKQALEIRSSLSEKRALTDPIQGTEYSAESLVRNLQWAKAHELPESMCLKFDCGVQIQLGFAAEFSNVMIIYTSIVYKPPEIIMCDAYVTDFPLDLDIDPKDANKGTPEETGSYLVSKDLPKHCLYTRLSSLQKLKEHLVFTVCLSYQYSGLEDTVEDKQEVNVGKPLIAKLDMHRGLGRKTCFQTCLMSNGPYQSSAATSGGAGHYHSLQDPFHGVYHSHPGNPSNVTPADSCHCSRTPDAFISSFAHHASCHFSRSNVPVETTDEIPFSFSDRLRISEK
Experimental: The tetrapeptide LRSR is coupled to AMC (7-amino-4-methylcoumarin) and provides a quenched, fluorescent substrate for the MALT1 protease (SM Biochemicals). […] Test compound concentrations ranged from 30 μM to 0.5 nM using 11 dilution steps (1:3). Background signal was measured from control wells containing assay buffer without enzyme which functions as low control (LC). High control (HC) values were generated using the reaction with enzyme but no compound treatment. Compounds were pre-incubated with MALT1 enzyme for 50 minutes at RT. […] The reaction was subsequently incubated for 4 h at RT and fluorescence was measured.
LC=Median of the low control values
An estimate of the slope of the plot in terms of the Hill coefficient was also obtained. IC50 Calculation:
[formula] With • UB=upper bound • LB=lower bound Used in “Lexis Dose Response Curve Fitting” Version 1.0.

[3] = system: IL6 secretion by TMD8 ABC-DLBCL cells; assay: Human IL6 Mesoscale assay (TMD-8); type: cell-based; settings: Homo sapiens, TMD8; TMD-8 cells, 24 h
Experimental: as §1, §2, §3

| Molecule | IC50 [1] [µM] | IC50 [2] [µM] | IC50 [3] [µM] |
| --- | --- | --- | --- |
| O=C(Nc1cnc(-n2nccn2)c(Cl)c1)c1cnn(-c2ccc(C(F)F)c3ncccc23)c1C(F)(F)F [Cpd 397, N-(5-chloro-6-(2H-1,2,3-triazol-2-yl)pyridin-3-yl)-1-(8-(difluoromethyl)quinolin-5-yl)-5-(trifluoromethyl)-1H-pyrazole-4-carboxamide] | 0.017 | 0.214 | 0.107 |
| O=C(Nc1cnc(-n2nccn2)c(Cl)c1)c1cnn(-c2cccc3c(C(F)F)nccc23)c1C(F)(F)F [Cpd 400, N-(5-chloro-6-(2H-1,2,3-triazol-2-yl)pyridin-3-yl)-1-(1-(difluoromethyl)isoquinolin-5-yl)-5-(trifluoromethyl)-1H-pyrazole-4-carboxamide] | 0.047 | 0.209 | 0.126 |
| O=C(O)c1cnn(-c2ccc(NC(=O)c3cnn(-c4cccc5ncccc45)c3C(F)(F)F)cc2Cl)n1 [Cpd 228, 2-(2-chloro-4-(1-(quinolin-5-yl)-5-(trifluoromethyl)-1H-pyrazole-4-carboxamido)phenyl)-2H-1,2,3-triazole-4-carboxylic acid] | 0.813 | 1.12 | 0.692 |
| CN1C(=O)COc2ccc(NC(=O)c3cnn(-c4cccc5ncccc45)c3C(F)(F)F)cc21 [Cpd 214, N-(4-methyl-3-oxo-3,4-dihydro-2H-benzo[b][1,4]oxazin-6-yl)-1-(quinolin-5-yl)-5-(trifluoromethyl)-1H-pyrazole-4-carboxamide] | 2.24 | 6.03 | 2.04 |
| N-(3-chloro-4-(1H-1,2,3-triazol-1-yl)phenyl)-1-(isoquinolin-4-yl)-5-(trifluoromethyl)-1H-pyrazole-4-carboxamide [Cpd 18] | – | 2.29 | – |
| O=C(Nc1ccc(-n2cccn2)c(Cl)c1)c1cnn(-c2cccc3ccncc23)c1C(F)(F)F [Cpd 12, N-(3-chloro-4-(1H-pyrazol-1-yl)phenyl)-1-(isoquinolin-8-yl)-5-(trifluoromethyl)-1H-pyrazole-4-carboxamide] | – | 4.07 | – |
| O=C(Nc1cnc(-n2nccn2)c(Cl)c1)c1cnn(-c2cc3ncccc3cc2F)c1C(F)(F)F [Cpd 67, N-(5-Chloro-6-(2H-1,2,3-triazol-2-yl)pyridin-3-yl)-1-(6-fluoroquinolin-7-yl)-5-(trifluoromethyl)-1H-pyrazole-4-carboxamide] | – | 2.04 | – |
| N#Cc1cc(NC(=O)c2cnn(-c3cncc4ccccc34)c2C(F)(F)F)cnc1C(=O)N1CCN(CCCCN)CC1 [Cpd 101, N-(6-(4-(4-aminobutyl)piperazine-1-carbonyl)-5-cyanopyridin-3-yl)-1-(isoquinolin-4-yl)-5-(trifluoromethyl)-1H-pyrazole-4-carboxamide] | – | 2.69 | – |
| Cc1ncn(-c2ccc(NC(=O)c3cnn(-c4cccc5ccncc45)c3C(F)(F)F)cc2Cl)n1 [Cpd 29, N-(3-chloro-4-(3-methyl-1H-1,2,4-triazol-1-yl)phenyl)-1-(isoquinolin-8-yl)-5-(trifluoromethyl)-1H-pyrazole-4-carboxamide] | – | 2.46 | – |
| O=C(Nc1cnc(-n2cccn2)c(Cl)c1)c1cnn(-c2cccc3ccncc23)c1C(F)(F)F [Cpd 15, N-(5-chloro-6-(1H-pyrazol-1-yl)pyridin-3-yl)-1-(isoquinolin-8-yl)-5-(trifluoromethyl)-1H-pyrazole-4-carboxamide] | – | 4.17 | – |
| COC(=O)c1ncc(NC(=O)c2ncc(NC(=O)c3cnn(-c4cncc5ccccc45)c3C(F)(F)F)cc2Cl)cc1Cl [Cpd 44, Methyl 3-chloro-5-(3-chloro-5-(1-(isoquinolin-4-yl)-5-(trifluoromethyl)-1H-pyrazole-4-carboxamido)picolinamido)picolinate] | – | 0.083 | – |
| Nc1nccc(-c2ccc(NC(=O)c3cnn(-c4cccc5ccncc45)c3C(F)(F)F)cc2Cl)n1 [Cpd 14, N-(4-(2-aminopyrimidin-4-yl)-3-chlorophenyl)-1-(isoquinolin-8-yl)-5-(trifluoromethyl)-1H-pyrazole] | – | 4.57 | – |
| Cc1ncn(-c2ncc(NC(=O)c3cnn(-c4cccc5ccncc45)c3C(F)(F)F)cc2Cl)n1 [Cpd 30, N-(5-chloro-6-(3-methyl-1H-1,2,4-triazol-1-yl)pyridin-3-yl)-1-(isoquinolin-8-yl)-5-(trifluoromethyl)-1H-pyrazole-4-carboxamide] | – | 5.01 | – |
| N#Cc1cc(NC(=O)c2cnn(-c3cncc4ccccc34)c2C(F)(F)F)ccn1 [Cpd 77, N-(2-cyanopyridin-4-yl)-1-(isoquinolin-4-yl)-5-(trifluoromethyl)-1H-pyrazole-4-carboxamide] | – | 0.417 | – |
| Cc1ncnn1-c1ccc(NC(=O)c2cnn(-c3cccc4ccncc34)c2C(F)(F)F)cc1Cl [Cpd 31, N-(3-chloro-4-(5-methyl-1H-1,2,4-triazol-1-yl)phenyl)-1-(isoquinolin-8-yl)-5-(trifluoromethyl)-1H-pyrazole-4-carboxamide] | – | 8.91 | – |
| CN1CCC(Oc2ncc(NC(=O)c3cnn(-c4cncc5ccccc45)c3C(F)(F)F)cc2C#N)CC1 [Cpd 80, N-(5-cyano-6-((1-methylpiperidin-4-yl)oxy)pyridin-3-yl)-1-(isoquinolin-4-yl)-5-(trifluoromethyl)-1H-pyrazole-4-carboxamide] | – | 0.724 | – |
| O=C(Nc1cnc(-n2nccn2)c(Cl)c1)c1cnn(-c2cccc3ncccc23)c1 [Cpd 60, N-(5-chloro-6-(2H-1,2,3-triazol-2-yl)pyridin-3-yl)-1-(quinolin-5-yl)-1H-pyrazole-4-carboxamide] | – | 11.5 | – |
| Cc1ccc2c(-n3ncc(C(=O)Nc4cnc(-n5nccn5)c(Cl)c4)c3C(F)(F)F)cccc2n1 [Cpd 37, N-(5-Chloro-6-(2H-1,2,3-triazol-2-yl)pyridin-3-yl)-1-(2-methylquinolin-5-yl)-5-(trifluoromethyl)-1H-pyrazole-4-carboxamide] | – | 1.45 | – |
| O=C(Nc1cnc(-n2nccn2)c(Cl)c1)c1cnn(-c2cncc3ccccc23)c1 [Cpd 76, N-(5-chloro-6-(2H-1,2,3-triazol-2-yl)pyridin-3-yl)-1-(isoquinolin-4-yl)-1H-pyrazole-4-carboxamide] | – | 8.32 | – |
| O=C(Nc1cnc(N2CCCS2(=O)=O)c(Cl)c1)c1cnn(-c2cccc3ccncc23)c1C(F)(F)F [Cpd 20, N-(5-chloro-6-(1,1-dioxidoisothiazolidin-2-yl)pyridin-3-yl)-1-(isoquinolin-8-yl)-5-(trifluoromethyl)-1H-pyrazole-4-carboxamide] | – | 9.55 | – |
| Cc1c(C(=O)Nc2cnc(-n3nccn3)c(Cl)c2)cnn1-c1ccnc2ccccc12 [Cpd 64, N-(5-chloro-6-(2H-1,2,3-triazol-2-yl)pyridin-3-yl)-5-methyl-1-(quinolin-4-yl)-1H-pyrazole-4-carboxamide] | – | 1.15 | – |
| O=C(Nc1ccnc(C(F)(F)F)c1)c1cnn(-c2cccc3c(=O)[nH]ccc23)c1C(F)(F)F [Cpd 158, 1-(1-oxo-1,2-dihydroisoquinolin-5-yl)-5-(trifluoromethyl)-N-(2-(trifluoromethyl)pyridin-4-yl)-1H-pyrazole-4-carboxamide] | 0.38 | – | > 1.51 |
| O=C(Nc1ccc(-n2nccn2)nc1)c1cnn(-c2cncc3ccccc23)c1C(F)(F)F [Cpd 71, N-(6-(2H-1,2,3-triazol-2-yl)pyridin-3-yl)-1-(isoquinolin-4-yl)-5-(trifluoromethyl)-1H-pyrazole-4-carboxamide] | – | 1.58 | – |
| N#Cc1ncc(NC(=O)c2cnn(-c3cccc4ccncc34)c2C(F)(F)F)cc1C(F)(F)F [Cpd 13, N-(6-cyano-5-(trifluoromethyl)pyridin-3-yl)-1-(isoquinolin-8-yl)-5-(trifluoromethyl)-1H-pyrazole-4-carboxamide] | – | 6.03 | – |
